In patent US6803044B1, “Antimicrobial and anti-inflammatory peptides for use in human immunodeficiency virus” (priority 1999, dated 2004):
Ends that are not written are not given here.

Columns and labels:
[1] = system: C. albicans (clinical isolate); assay: Melanocortin peptides on C. albicans viability (colony forming units); type: cell-based; conditions: for reduction of C. albicans CFU at higher concentrations: up to 10^−4M; for C. albicans colony forming units (CFU): two hours at 37° C.
Method: S. aureus (ATCC 29213) and C. albicans (clinical isolate) were obtained from the collection of the Department of Microbiology, Ospedale Maggiore di Milano. C. albicans were maintained on Sabouraud'[…] periodically transferred to Sabouraud's agar plates and incubated for 48 hours at 28° C. To prepare stationary growth phase yeast, a colony was taken from the agar plate and transferred into 30 ml Sabouraud-dextrose broth and incubated for 72 hours at 32° C. Cells were centrifuged at 100×g for 10 minutes and the pellet was washed twice with distilled water. Cells were counted and suspended in Hank's balanced salt solution (“HBSS”) to the desired concentration. Viability, determined by the exclusion of 0.01% methylene blue, remained >98%. […] Cells were then washed in cold distilled water and diluted with HBSS to a concentration of 100 organisms/ml. One ml aliquots were dispensed on blood agar plates and incubated for 48 hours at 37° C. Organism viability was estimated from the number of colonies formed. In subsequent experiments using similar procedures we compared activity of α-MSH (4-10), (6-13), (11-13), ACTH (1-39), (18-39), and fluconazole, the latter an established […]. […] There were at least six replicates for each concentration of peptide. […] The reaction was stopped after three minutes by the addition of ice cold ethanol. cAMP was measured in duplicate using a commercial enzyme immunoassay (EIA) kit (Amersham, United Kingdom) after extraction via the liquid-phase method according to manufacturer's instructions.

[2] = system: chronically HIV-1 infected promonocytic U1 cell line; assay: p24 antigen release by stimulated U1 cells (ELISA); type: cell-based; conditions: for most effective concentration for HIV inhibition (p24 release): tested 10^−13 to 10^−4 M
Method: (§1) Before use, cells were washed three times with HBSS (Gibco) to remove extracellular virus. […] In crowding experiments, U1 cells were seeded at the density of 2×10^5 mL and maintained in culture at 37° C. in 5% CO2 without change of medium for 7 days. […] In all experiments each condition was tested in triplicate.
(§2) p24 antigen release (Cellular Products Inc. Buffalo, N.Y., USA) and reverse transcriptase (ELISA Retrosys RT assay, Innovagen, Lund, Sweden) were determined using commercial ELISA kits.

[3] = system: chronically HIV-1 infected promonocytic U1 cell line; assay: reverse transcriptase (RT) release by stimulated U1 cells (ELISA); type: cell-based; conditions: U1 cells induced by IL-6, IL-10, PMA, and in crowding condition; KPV 10^−5 M
Method: as §1, §2

[4] = system: HIV-1 RNA in PMA-stimulated U1 cells; assay: Northern blot for HIV-1 RNA in U1 cells; type: cell-based; conditions: PMA (1 ng/mL)-stimulated U1 cells; KPV 10^−5 M; 24 h
Excerpt: Total RNA was extracted by the guanidine thiocyapate phenol method using an RNA isolation kit (Tripure, Boehringer Mannheim, Indianapolis, Ind.), following the manufacturer's instructions. Ten μg of total RNA were separated by 0.8% agarose/formaldehyde gel electrophoresis and transferred onto nylon membrane. The filters were baked and hybridized for 18 hr with α^32 P-labeled HIV-full length probe (kind gift of L. Turchetto and E. Vicenzi, S. Raffaele Hospital, Milan, Italy). The radiolabelling reaction was performed using a DNA labelling kit (Ready-to-go, Pharmacia Biotech, San Francisco, Calif.). Filters were washed and exposed to X-ray film for 5 days. The labeled probe was removed by washing at 80° C. in 0.1×SSC containing 0.1% sodium dodecyl sulphate and then rehybridized witb α^32 P-labeled glyceraldehyde-3-phosphate dehydrogenase (GAPDH) cDNA probe. Densitometric analysis was performed using ImageMaster™ VDS 3.0 software (Pharmacia Biotech) and results were expressed as density units.

[5] = system: HIV-1Ba-L strain in human MDM; assay: RT release in acutely infected monocyte derived macrophages (MDM); type: cell-based; conditions: KPV 10^−5 M daily, more pronounced on day 6, still significant on day 21
Method: as §2
Human peripheral blood mononuclear cells (PBMCs) were isolated from normal donors by Ficoll-Hypaque density gradient centrifugation. Monocytes were isolated by Percoll gradient separation and allowed to differentiate into macrophages (MDM) in complete medium RPMI plus 20% FCS in 24-well tissue culture plates at 10^6 cells/mL for 7-days. MDM were infected with monocytotropic HIV-1Ba-L strain (1:10) overnight. The undiluted viral stock contained 10^7 infectious Units/mL. After 24 h, MDM were washed and resuspended in complete medium, replaced 3 times/week, for 3 weeks. RT activity was measured weekly post-infection.

NF-κB = assay: Electrophoretic mobility shift assay of NF-κB DNA-binding activity in U1 cells; type: cell-based; conditions: 10^−5 M peptide
Excerpt: The mixtures were run on a 5% (30:1) acrylamide gel in 1× Tris-Borate-EDTA (TBE). Gels were dried and exposed to film for autoradiography (3 days).

S. aureus (ATCC 29213) = assay: Melanocortin peptides on S. aureus viability (colony formation); type: cell-based; conditions: two hours at 37° C.
Method: S. aureus (ATCC 29213) and C. albicans (clinical isolate) were obtained from the collection of the Department of Microbiology, Ospedale Maggiore di Milano. C. albicans were maintained on Sabouraud'[…] periodically transferred to Sabouraud's agar plates and incubated for 48 hours at 28° C. To prepare stationary growth phase yeast, a colony was taken from the agar plate and transferred into 30 ml Sabouraud-dextrose broth and incubated for 72 hours at 32° C. Cells were centrifuged at 100×g for 10 minutes and the pellet was washed twice with distilled water. Cells were counted and suspended in Hank's balanced salt solution (“HBSS”) to the desired concentration. Viability, determined by the exclusion of 0.01% methylene blue, remained >98%. […] Cells were then washed in cold distilled water and diluted with HBSS to a concentration of 100 organisms/ml. One ml aliquots were dispensed on blood agar plates and incubated for 24 hours at 37° C. Organism viability was estimated from the number of colonies formed.

S. aureus = assay: Urokinase-induced growth enhancement of S. aureus; type: cell-based; conditions: peptide 10^−6M; urokinase 500 U; four hours
Excerpt: In experiments on S. aureus, we determined the influence of α-MSH on urokinase-induced growth-enhancement. Hart, D. A.; Loule, T.; Krulikl, W.; Reno, C., Staphylococcus Aureus Strains Differ in Their in Vitro Responsiveness to Human Urokinase: Evidence that Methicillin-Resistant Strains are Predominantly Nonresponsive to the Growth-Enhancing Effects of Urokinase, Can. J. Microbiol. 42, 1024-31 […]. […] Appropriate dilutions of S. aureus were dispensed on agar plates and colonies counted after 24 hours incubation at 37° C.

C. albicans [6] = assay: α-MSH peptides on C. albicans germination (horse serum-induced); type: cell-based; conditions: horse serum-induced germ tube formation; peptide 10^−4M; 60 minutes
Method: C. albicans from stationary phase cultures were washed twice with distilled water and suspended in HBSS to a final concentration of 2×10^6/ml. Hyphal growth was induced by addition of 10% inactivated horse serum (GMCO/BRL, Paisley, Great Britain) to yeast incubated for 45 minutes at 37° C. with continuous shaking. […] The percentage of filamentous cells was evaluated under a light microscope with the aid of a hartocytometer. Experiments were run in triplicate and at least 200 cells were scored. Photomicrographs were taken with a MC100 […] attached to an Axioskop Zeiss microscope.

[7] = system: C. albicans killing by human neutrophils; assay: C. albicans killing by human neutrophils; type: cell-based; conditions: two hours at 37° C.
Method: Venous blood (20 ml) from healthy volunteers was anticoagulated with heparin. Neutrophils were isolated using dextran sedimentation and Ficoll-Hypaque (Sigma Chemical Co., St. Louis, Mo., USA) centrifugation. Erythrocytes were lysed via hypotonic shock. Neutrophils represented at least 97% of the cell suspension. Cell viability, estimated by trypan blue exclusion, was >98%. Neutrophils were suspended to final concentration in HBSS. […] After incubation, the culture tubes were placed on ice to stop growth and extracellular organisms were washed twice with centrifugation at 100×g at 4° C. A 2.5% sodium desoxycholate solution was added to the suspension and the tubes were shaken for five minutes. Cold distilled water was added to obtain a suspension of 10^6 cells/ml. Two 1/100 serial dilution in HBSS were made to obtain a final suspension of 100 cells/ml. Aliquots of 1 ml were dispensed on blood agar plates and incubated for 48 hours at 37° C. Colony forming units (“CFU”) were counted at the end of the incubation period. Experiments were run in triplicate and repeated using blood from five different donors.

C. albicans [8] = assay: cAMP accumulation in C. albicans (EIA); type: cell-based; conditions: 10^−6M; three minutes
Method: The reaction was stopped after three minutes by the addition of ice cold ethanol. cAMP was measured in duplicate using a commercial enzyme immunoassay (EIA) kit (Amersham, United Kingdom) after extraction via the liquid-phase method according to manufacturer's instructions.

[9] = centrally administered, rabbit; cited from earlier work
[10] = in vivo; cited from earlier work
[11] = 10^−4M melanocortin peptides (FIG. 11 legend: 10^−6M)

ACTH (1-39): melanocortin peptide ACTH (1-39) (SYSMEHFRWGKPVGKKRRPVKVYPNGAEDESAEAFPLEF; Corticotropin; UniProt P01189 138-176, looked up) [reference compound]
relative potency in reducing C. albicans viability [1, 11]: did not reduce C. albicans viability
reduction of C. albicans CFU at higher concentrations [1]: likewise ineffective

KPV
most effective concentration for HIV inhibition (p24 release) ([2]; TNF-α-stimulated U1 cells): 10^−5 M
p24 release ([2]; U1 cells induced by IL-6, IL-10, PMA, and in crowding condition, KPV 10^−5 M): significantly inhibited
RT release [3]: significantly inhibited
reduction of both spliced and unspliced HIV-1 RNA [4]: approximately 50%
RT release [5]: significantly inhibited
NF-κB activation (DNA binding) (NF-κB; TNF-α-treated U1 cells): significantly reduced
NF-κB activation (DNA binding) (NF-κB; resting U1 cells): did not alter
S. aureus colony formation (S. aureus (ATCC 29213)): inhibited
enhancing effect of urokinase on S. aureus colony formation (S. aureus): significantly inhibited
C. albicans colony forming units (CFU) [1]: greatly reduced
reduction in the number of filamentous cells (inhibition of germination) (C. albicans [6]): 54-58%
killing of C. albicans by human neutrophils [7]: enhanced killing
cAMP content of C. albicans (C. albicans [8]): enhanced cAMP content

NH2-Val-Pro-Lys-Ac-Cys-Cys-Ac-Lys-Pro-Val-NH2 (Ac-CKPV-NH2; also: dimer linked through Cys-Cys) [KPV dimer]
S. aureus colony formation (S. aureus (ATCC 29213)): inhibited
effectiveness against microbes compared with α-MSH (11-13) ([1]; S. aureus and C. albicans): at least as effective as α-MSH (11-13)
C. albicans colony forming units (CFU) [1]: inhibited

HFRWGKPV [α-MSH (6-13)]
relative potency in reducing C. albicans viability [1, 11]: most effective

10-13 sequence: α-MSH (11-13) with glycine added to form the 10-13 sequence (GKPV; ends and bridges not checked; UniProt P01189 147-150, looked up, fragment)
antipyretic potency relative to the 11-13 sequence [9]: slightly decreased potency

ACTH fragment (18-39): ACTH fragment (18-39) (CLIP) [reference compound]
relative potency in reducing C. albicans viability [1, 11]: did not reduce C. albicans viability
reduction of C. albicans CFU at higher concentrations [1]: likewise ineffective

SYSMEHFRWGKPV (listed as Homo sapiens) [α-MSH (1-13)]
inhibition of p24 release ([2]; TNF-α-stimulated U1 cells, picomolar peptide concentrations that occur in human plasma): 34-36%
most effective concentration for HIV inhibition (p24 release) ([2]; TNF-α-stimulated U1 cells): 10^−5 M
S. aureus colony formation (S. aureus (ATCC 29213)): inhibited
enhancing effect of urokinase on S. aureus colony formation (S. aureus): significantly inhibited
C. albicans colony forming units (CFU) [1]: greatly reduced
killing of C. albicans by human neutrophils [7]: enhanced killing
cAMP content of C. albicans (C. albicans [8]): enhanced cAMP content

MEHFRWG [α-MSH sequence (4-10)]
inhibition of C. albicans CFU [1, 11]: approximately 50%

[Nle^4, D-Phe^7], α-MSH
potency in reducing fever relative to parent peptide [10]: approximately ten times more potent than the parent peptide
